Measurements published in article PMC11364019, “Capturing the blue-light activated state of the Phot-LOV1 domain from Chlamydomonas reinhardtii using time-resolved serial synchrotron crystallography” (IUCrJ, 2024).

Target: T1, CrPhotLOV1 (Chlamydomonas reinhardtii, UniProt Q8LPD9)
T1 construct: gene PHOT; LOV1 domain, residues 16-133; N-terminal His-tag (pET16b) removed by limited trypsin proteolysis; expressed in E. coli BL21 DE3
T1 sequence (Q8LPD9 16-133): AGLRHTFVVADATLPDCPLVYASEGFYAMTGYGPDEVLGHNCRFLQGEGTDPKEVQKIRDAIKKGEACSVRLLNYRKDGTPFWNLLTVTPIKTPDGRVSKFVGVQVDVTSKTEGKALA
Assay: X-ray crystallography (cryo, serial and time-resolved serial synchrotron); FTIR difference spectroscopy on crystals
Format: binding
Details: dark state: non-covalent; after blue light: covalent thioether adduct of Cys57 S-gamma to FMN C4a; crystals at pH 6.5; 100 K and room temperature

## Cc1cc2nc3c(=O)[nH]c(=O)nc-3n(C[C@H](O)[C@H](O)[C@H](O)COP(=O)(O)O)c2cc1C [FMN, flavin mononucleotide]
  X-ray crystallography (cryo, serial and time-resolved serial synchrotron); FTIR: light-induced formation of the thioether covalent adduct
